Assays:
Conditions in all cases: ATP=10 uM, sample concentration=100 nM
PI3 Kinase (p120γ) (h) = molecular target: T1, PI3 Kinase (p120γ) (h) (Homo sapiens, UniProt P48736); assay: Inhibition of phosphatidylinositol 3-kinase gamma (PI3K γ), pAkt Western blotting in C5a-stimulated RAW264.7 macrophages; type: cell-based, mouse
T1 construct: endogenous in cells; host or cells: RAW264.7
In short: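 Enzyme: PI3Kγ activity measured at ATP=10 uM with compound at 100 nM. Cellular: RAW264.7 macrophages treated with compound 1.5 h, then stimulated with 10 ng/mL C5a for 5 min; lysates (10 μg protein) probed by Western blot for pAkt (Ser473 or Thr308), ECL detection.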

[1] = molecular target: T2, PI3 Kinase (p110β/p86α) (h) (Homo sapiens, UniProt P42338); assay: Inhibition of phosphatidylinositol 3-kinase beta (PI3K β), pAkt Western blotting in LPA-stimulated PC3 cells; type: cell-based
T2 construct: endogenous in cells; host or cells: PC3
Protocol: (§1) The stimulated cells were transferred in a 1.5 mL tube, followed by centrifugation at 3000 rpm for 1 minute. 100 μL of RIPA buffer (radioimmunoprecipitation assay buffer, 50 mM Tris-HCl, 5 mM EDTA, 150 mM NaCl, 1% NP-40, 1 mM PMSF, pH 8.0; ELPIS, Korea) was added thereto, which was stored in a 4° C. refrigerator for 12 hours. Centrifugation was performed at 4° C. at 14,000 rpm for 20 minutes. The supernatant was transferred into a new 1.5 mL tube. Protein was quantified by BCA (bicinchoninic acid) method and samples were prepared. The composition of the sample was as follows: sample buffer (ELPIS, EBA-1052) 5×, protein 10 μg, and 1× sample buffer to make the total volume 20 μL. The sample was heated at 100° C. for 5 minutes. The evaporated water vapor was condensed in a refrigerator. The liquid stained on the wall was fallen down by centrifugation for a few seconds. The sample proceeded to 10% SDS (Sodium Dodecyl Sulfate) acrylamide gel for separation. The separated protein was transferred onto PVDF (poly-vinyl difluoride) membrane, followed by reaction with pAkt (phospho protein kinase B) antibody (Ser473 or Thr308; Cell signaling, 9271s or 13038s) for 12 hours at 4° C. The membrane was washed with TBST (Tris-Buffered Saline with Tween 20, 10 mM Tris-HCl, pH 7.5, 150 mM NaCl, 0.1% Tween-20) three times for 5 minutes each, to which the secondary antibody (rabbit antibody, Santacruz, sc-2004) was added, followed by reaction at room temperature for 2 hours. The membrane was washed with TBST three times for 10 minutes each, to which ECL (enhanced chemiluminescence, Thermo, NCI34095KR) was sprayed. Bands were investigated by using LAS-3000.
The inhibition of phosphatidylinositol 3 kinase beta (PI3K β) by those compounds prepared in Examples 1˜98 was investigated by the following experiment. The inhibition activity of each compound was measured in the following conditions: ATP=10 uM, and sample concentration=100 nM.
Human prostate cancer cells (PC3 cells) cultured in DMEM (Dulbecco's Modified Eagle Medium, Hyclon, SH30243.01) supplemented with 10% fetal bovine serum (Hyclon, USA) were distributed in a 12-well plate at the density of 1,000,000 cells/well. The cells were stabilized in a 37° C. CO2 for 24 hours and then treated with each compound for 1 and half hours. The cells were treated with 10 ng/mL of LPA (lysophosphatidic acid, 10 μg/mL; R&D, 2150-05) to increase the intracellular activity of PI3K beta. 5 minutes later, the medium was discarded and the cells were washed with cold PBS (phosphate buffered saline, Gibco, 14190-250). PBS was then eliminated completely by using a pipette. Western blotting was performed according to the same manner as described in step 2 of Experimental Example 1 to evaluate the intracellular PI3K beta activity.

[2] = molecular target: T3, PI3 Kinase (p110δ/p85α) (h) (Homo sapiens, UniProt O00329); assay: Inhibition of phosphatidylinositol 3-kinase delta (PI3K δ), pAkt Western blotting in IgM-stimulated Raji cells; type: cell-based
T3 construct: endogenous in cells; host or cells: Raji
In short: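 Raji cells were treated with compound for 1.5 h, then stimulated with 0.25 μg/mL IgM for 30 min to activate PI3Kδ. Lysates were Western blotted for pAkt (Ser473 or Thr308) with ECL detection. Conditions stated: ATP=10 uM, sample concentration=100 nM.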

[3] = molecular target: T4, PI3 Kinase (p110α/p85α) (h) (Homo sapiens, UniProt P42336); assay: Inhibition of phosphatidylinositol 3-kinase alpha (PI3K α), pAkt Western blotting in EGF-stimulated MDA-MB-453 cells; type: cell-based
T4 construct: endogenous in cells; host or cells: MDA-MB-453
Protocol: The inhibition of phosphatidylinositol 3 kinase alpha (PI3K α) by those compounds prepared in Examples 1˜98 was investigated by the following experiment. The inhibition activity of each compound was measured in the following conditions: ATP=10 uM, and sample concentration=100 nM.
Human breast cancer cells (MDA-MB-453) cultured in DMEM (Dulbecco's Modified Eagle Medium, Hyclon, SH30243.01) supplemented with 10% fetal bovine serum (Hyclon, USA) were distributed in a 12-well plate at the density of 1,000,000 cells/well. The cells were stabilized in a 37° C. CO2 for 24 hours and then treated with each compound for 1 and half hours. The cells were treated with 10 ng/mL of EGF (Epidermal Growth Factor, 10 μg/mL; R&D, 2150-C5) to increase the intracellular activity of PI3K alpha. 5 minutes later, the medium was discarded and the cells were washed with cold PBS (phosphate buffered saline, Gibco, 14190-250). PBS was then eliminated completely by using a pipette. Western blotting was performed as described in step 2 to evaluate the intracellular PI3K alpha activity.
as §1

T2 sequence (P42338 whole entry): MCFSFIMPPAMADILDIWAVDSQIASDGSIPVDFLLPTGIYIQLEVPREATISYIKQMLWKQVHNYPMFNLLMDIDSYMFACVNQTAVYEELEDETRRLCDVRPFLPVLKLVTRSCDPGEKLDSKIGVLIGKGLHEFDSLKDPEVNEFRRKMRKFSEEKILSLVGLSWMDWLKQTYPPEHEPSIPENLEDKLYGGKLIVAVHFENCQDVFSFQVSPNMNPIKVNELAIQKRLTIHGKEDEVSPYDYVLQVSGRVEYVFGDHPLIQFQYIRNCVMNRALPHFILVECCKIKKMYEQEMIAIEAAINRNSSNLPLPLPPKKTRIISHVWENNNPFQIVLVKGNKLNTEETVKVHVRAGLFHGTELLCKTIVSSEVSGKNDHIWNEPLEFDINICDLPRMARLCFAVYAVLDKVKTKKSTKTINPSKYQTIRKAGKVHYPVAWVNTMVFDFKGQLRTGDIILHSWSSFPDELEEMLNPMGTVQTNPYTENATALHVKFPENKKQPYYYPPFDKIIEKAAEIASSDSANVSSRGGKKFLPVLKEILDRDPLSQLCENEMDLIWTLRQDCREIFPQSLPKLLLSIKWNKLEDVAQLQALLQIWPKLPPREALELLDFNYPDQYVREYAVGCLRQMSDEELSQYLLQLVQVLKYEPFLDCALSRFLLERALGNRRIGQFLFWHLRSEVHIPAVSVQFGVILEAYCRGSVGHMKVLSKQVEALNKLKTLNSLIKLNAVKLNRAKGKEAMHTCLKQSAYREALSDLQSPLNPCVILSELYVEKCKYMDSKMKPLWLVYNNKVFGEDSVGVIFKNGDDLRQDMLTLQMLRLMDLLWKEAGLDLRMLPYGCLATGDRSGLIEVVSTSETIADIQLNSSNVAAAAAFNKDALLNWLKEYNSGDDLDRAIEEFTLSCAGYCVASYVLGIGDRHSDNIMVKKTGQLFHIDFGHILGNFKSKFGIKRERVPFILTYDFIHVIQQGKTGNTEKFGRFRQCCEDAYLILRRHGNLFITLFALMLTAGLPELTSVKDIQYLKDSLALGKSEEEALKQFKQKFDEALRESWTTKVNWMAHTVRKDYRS
T2 sequence (P27986 whole entry partner): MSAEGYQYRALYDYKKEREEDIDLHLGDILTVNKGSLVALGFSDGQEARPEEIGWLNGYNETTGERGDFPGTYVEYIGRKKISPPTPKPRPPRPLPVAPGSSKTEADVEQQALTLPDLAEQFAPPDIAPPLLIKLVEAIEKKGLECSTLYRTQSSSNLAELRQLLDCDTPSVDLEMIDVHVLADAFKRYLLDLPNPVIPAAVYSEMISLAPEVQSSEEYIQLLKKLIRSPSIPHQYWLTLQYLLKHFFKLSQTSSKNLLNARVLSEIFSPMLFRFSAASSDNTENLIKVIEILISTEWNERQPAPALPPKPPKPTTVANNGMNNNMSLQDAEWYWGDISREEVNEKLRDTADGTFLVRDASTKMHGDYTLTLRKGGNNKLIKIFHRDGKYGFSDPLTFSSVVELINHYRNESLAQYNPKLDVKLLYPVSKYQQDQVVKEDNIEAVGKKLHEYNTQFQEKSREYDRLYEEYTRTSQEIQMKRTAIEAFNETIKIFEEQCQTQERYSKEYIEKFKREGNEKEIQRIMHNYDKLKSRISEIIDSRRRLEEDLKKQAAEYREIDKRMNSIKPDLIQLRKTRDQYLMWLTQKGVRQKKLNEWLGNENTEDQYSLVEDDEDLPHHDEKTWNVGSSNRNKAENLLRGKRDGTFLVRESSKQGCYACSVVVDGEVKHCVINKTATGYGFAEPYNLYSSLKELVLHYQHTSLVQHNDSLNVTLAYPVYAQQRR
T4 sequence (P42336 whole entry): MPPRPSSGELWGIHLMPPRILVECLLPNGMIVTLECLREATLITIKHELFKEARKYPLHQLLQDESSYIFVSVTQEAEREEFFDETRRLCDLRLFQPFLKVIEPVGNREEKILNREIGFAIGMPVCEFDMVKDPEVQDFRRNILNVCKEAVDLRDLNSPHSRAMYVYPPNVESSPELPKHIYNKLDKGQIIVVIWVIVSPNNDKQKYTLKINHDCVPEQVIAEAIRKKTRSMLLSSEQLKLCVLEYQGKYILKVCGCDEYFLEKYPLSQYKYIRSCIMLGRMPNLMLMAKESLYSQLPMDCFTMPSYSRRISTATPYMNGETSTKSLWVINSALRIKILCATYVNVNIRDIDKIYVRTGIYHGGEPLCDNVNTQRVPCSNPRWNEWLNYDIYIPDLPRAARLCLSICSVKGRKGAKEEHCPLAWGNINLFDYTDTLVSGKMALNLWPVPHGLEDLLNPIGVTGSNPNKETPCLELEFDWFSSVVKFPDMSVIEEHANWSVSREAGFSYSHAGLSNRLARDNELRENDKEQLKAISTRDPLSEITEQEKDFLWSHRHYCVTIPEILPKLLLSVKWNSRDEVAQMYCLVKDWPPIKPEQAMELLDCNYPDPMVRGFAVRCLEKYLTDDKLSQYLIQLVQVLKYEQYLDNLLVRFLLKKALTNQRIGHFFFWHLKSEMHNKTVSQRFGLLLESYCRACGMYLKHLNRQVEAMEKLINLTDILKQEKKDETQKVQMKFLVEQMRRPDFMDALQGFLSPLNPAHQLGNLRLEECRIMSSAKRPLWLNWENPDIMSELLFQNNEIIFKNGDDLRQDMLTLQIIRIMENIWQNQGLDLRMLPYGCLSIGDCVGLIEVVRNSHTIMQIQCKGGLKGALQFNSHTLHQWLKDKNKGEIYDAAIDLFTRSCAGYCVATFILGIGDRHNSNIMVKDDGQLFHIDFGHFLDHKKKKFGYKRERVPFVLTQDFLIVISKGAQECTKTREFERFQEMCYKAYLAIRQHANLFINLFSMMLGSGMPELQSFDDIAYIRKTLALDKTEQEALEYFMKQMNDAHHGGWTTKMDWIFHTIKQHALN
T4 sequence (P27986 2-724 partner limits assumed): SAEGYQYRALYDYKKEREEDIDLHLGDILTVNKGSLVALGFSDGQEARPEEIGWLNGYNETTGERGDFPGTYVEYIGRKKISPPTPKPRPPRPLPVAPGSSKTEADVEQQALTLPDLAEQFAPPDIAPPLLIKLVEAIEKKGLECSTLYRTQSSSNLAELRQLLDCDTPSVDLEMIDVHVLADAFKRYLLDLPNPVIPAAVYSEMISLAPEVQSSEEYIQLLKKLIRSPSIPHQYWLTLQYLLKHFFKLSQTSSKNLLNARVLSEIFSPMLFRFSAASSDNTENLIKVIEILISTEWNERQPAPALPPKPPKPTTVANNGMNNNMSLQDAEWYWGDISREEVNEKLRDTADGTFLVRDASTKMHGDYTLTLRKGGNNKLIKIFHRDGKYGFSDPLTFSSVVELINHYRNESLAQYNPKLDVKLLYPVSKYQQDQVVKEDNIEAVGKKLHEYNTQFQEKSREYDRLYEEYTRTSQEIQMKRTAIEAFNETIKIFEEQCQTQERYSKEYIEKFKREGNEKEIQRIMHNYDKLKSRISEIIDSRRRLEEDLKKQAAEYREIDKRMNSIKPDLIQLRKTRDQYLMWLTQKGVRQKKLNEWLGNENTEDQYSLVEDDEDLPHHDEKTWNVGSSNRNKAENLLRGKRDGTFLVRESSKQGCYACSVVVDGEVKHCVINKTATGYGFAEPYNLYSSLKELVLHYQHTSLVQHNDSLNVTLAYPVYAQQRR
T1 sequence (P48736 whole entry): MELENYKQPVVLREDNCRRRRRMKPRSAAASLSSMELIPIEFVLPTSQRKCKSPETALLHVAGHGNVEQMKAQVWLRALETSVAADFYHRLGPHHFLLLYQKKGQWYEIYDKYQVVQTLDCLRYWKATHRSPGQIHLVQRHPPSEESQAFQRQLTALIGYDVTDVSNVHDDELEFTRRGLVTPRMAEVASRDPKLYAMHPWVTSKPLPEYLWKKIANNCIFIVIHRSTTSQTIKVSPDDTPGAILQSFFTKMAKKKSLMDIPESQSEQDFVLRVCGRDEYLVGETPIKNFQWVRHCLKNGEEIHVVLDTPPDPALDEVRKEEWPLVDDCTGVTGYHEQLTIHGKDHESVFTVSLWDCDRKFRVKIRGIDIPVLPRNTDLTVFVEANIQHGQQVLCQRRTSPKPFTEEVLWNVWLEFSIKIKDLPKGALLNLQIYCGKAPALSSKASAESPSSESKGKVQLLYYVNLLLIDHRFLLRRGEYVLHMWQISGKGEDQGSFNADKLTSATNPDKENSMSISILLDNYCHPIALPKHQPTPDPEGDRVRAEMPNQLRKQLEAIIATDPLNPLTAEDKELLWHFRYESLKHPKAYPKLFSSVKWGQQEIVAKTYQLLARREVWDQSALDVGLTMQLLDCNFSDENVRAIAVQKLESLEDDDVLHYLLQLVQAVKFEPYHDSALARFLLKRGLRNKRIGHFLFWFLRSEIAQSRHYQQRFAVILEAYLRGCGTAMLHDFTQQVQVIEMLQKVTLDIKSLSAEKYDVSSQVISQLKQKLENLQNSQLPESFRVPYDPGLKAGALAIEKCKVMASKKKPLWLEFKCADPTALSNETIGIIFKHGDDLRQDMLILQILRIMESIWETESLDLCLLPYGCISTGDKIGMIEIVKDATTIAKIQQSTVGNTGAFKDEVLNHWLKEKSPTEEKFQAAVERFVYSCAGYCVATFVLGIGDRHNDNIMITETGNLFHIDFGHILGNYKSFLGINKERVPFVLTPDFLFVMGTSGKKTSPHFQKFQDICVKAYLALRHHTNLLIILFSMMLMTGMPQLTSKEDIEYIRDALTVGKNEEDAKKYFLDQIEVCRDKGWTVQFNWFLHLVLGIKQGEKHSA

SMILES	IC50 (PI3 Kinase (p120γ) (h))	IC50 [1]	IC50 [2]	IC50 [3]
Cc1c[nH]c2ncnc(N[C@@H](C)c3cc4cccc(Cl)c4c(=O)n3-c3ccccc3)c2c1=O [Example 17, (S)-4-((1-(8-chloro-1-oxo-2-phenyl-1,2-dihydroisoquinoline-3-yl)ethyl)amino)-6-methylpyrido[2,3-d]pyrimidine-5(8H)-one]	10 to 500 nM	> 500 nM	10 to 500 nM	> 500 nM
Cc1c[nH]c2nc(N)nc(N[C@@H](C)c3cc4cccc(Cl)c4c(=O)n3-c3ccccc3)c2c1=O [Example 18, (S)-2-amino-4-((1-(8-chloro-1-oxo-2-phenyl-1,2-dihydroisoquinoline-3-yl)ethyl)amino)-6-methylpyrido[2,3-d]pyrimidine-5(8H)-one]	10 to 500 nM	10 to 500 nM	< 10 nM	10 to 500 nM
C[C@H](Nc1ncnc2[nH]cc(C#N)c(=O)c12)c1cc2cccc(Cl)c2c(=O)n1-c1ccccc1 [Example 19, (S)-4-((1-(8-chloro-1-oxo-2-phenyl-1,2-dihydroisoquinoline-3-yl)ethyl)amino)-5-oxo-5,8-dihydropyrido[2,3-d]pyrimidine-6-carbonitrile]	> 500 nM	> 500 nM	> 500 nM	> 500 nM
C[C@H](Nc1ncnc2[nH]cc(F)c(=O)c12)c1cc2cccc(Cl)c2c(=O)n1-c1ccccc1 [Example 20, (S)-4-((1-(8-chloro-1-oxo-2-phenyl-1,2-dihydroisoquinoline-3-yl)ethyl)amino)-6-fluoropyrido[2,3-d]pyrimidine-5(8H)-one]	10 to 500 nM	> 500 nM	< 10 nM	> 500 nM
C[C@H](Nc1ncnc2[nH]cc(F)c(=O)c12)c1nc2cccc(Cl)c2c(=O)n1-c1ccccc1 [Example 21, (S)-4-((1-(5-chloro-4-oxo-3-phenyl-3,4-dihydroquinazoline-2-yl)ethyl)amino)-6-fluoropyrido[2,3-d]pyrimidine-5(8H)-one]	10 to 500 nM	10 to 500 nM	< 10 nM	10 to 500 nM
C[C@H](Nc1ncnc2[nH]cc(Cl)c(=O)c12)c1nc2cccc(Cl)c2c(=O)n1-c1ccccc1 [Example 22, (S)-6-chloro-4-((1-(5-chloro-4-oxo-3-phenyl-3,4-dihydroquinazoline-2-yl)ethyl)amino)pyrido[2,3-d]pyrimidine-5(8H)-one]	10 to 500 nM	> 500 nM	< 10 nM	> 500 nM
C[C@H](Nc1ncnc2[nH]cc(Cl)c(=O)c12)c1cc2cccc(Cl)c2c(=O)n1-c1ccccc1 [Example 23, (S)-6-chloro-4-((1-(8-chloro-1-oxo-2-phenyl-1,2-dihydroisoquinoline-3-yl)ethyl)amino)pyrido[2,3-d]pyrimidine-5(8H)-one]	10 to 500 nM	> 500 nM	< 10 nM	> 500 nM
C[C@H](Nc1ncnc2[nH]cc(Cl)c(=O)c12)c1c(Cl)c2cccc(Cl)c2c(=O)n1-c1ccccc1 [Example 24, (S)-6-chloro-4-((1-(4,8-dichloro-1-oxo-2-phenyl-1,2-dihydroisoquinoline-3-yl)ethyl)amino)pyrido[2,3-d]pyrimidine-5(8H)-one]	10 to 500 nM	> 500 nM	10 to 500 nM	> 500 nM

Continued, values first:

IC50 (PI3 Kinase (p120γ) (h))	IC50 [1]	IC50 [2]	IC50 [3]	SMILES
< 10 nM	> 500 nM	< 10 nM	> 500 nM	C[C@H](Nc1nc(N)nc2[nH]ccc(=O)c12)c1nc2ccc(F)cc2cc1-c1ccccn1 [Example 25, (S)-2-amino-4-((1-(6-fluoro-3-(pyridine-2-yl)quinoline-2-yl)ethyl)amino)pyrido[2,3-d]pyrimidine-5(8H)-one]
> 500 nM	> 500 nM	10 to 500 nM	> 500 nM	CC(Nc1ncnc2[nH]ccc(=O)c12)c1nc2ccc(F)cc2c(-c2ccccn2)c1-c1ccccn1 (centres unmarked) [Example 26, 4-((1-(6-fluoro-3,4-di(pyridine-2-yl)quinoline-2-yl)ethyl)amino)pyrido[2,3-d]pyrimidine-5(8H)-one]
10 to 500 nM	> 500 nM	10 to 500 nM	> 500 nM	C[C@H](Nc1ncnc2[nH]ccc(=O)c12)c1nc2ccc(F)cc2c(-c2ccccn2)c1-c1ccccc1 [Example 27, (S)-4-((1-(6-fluoro-3-phenyl-4-(pyridine-2-yl)quinoline-2-yl)ethyl)amino)pyrido[2,3-d]pyrimidine-5(8H)-one]
> 500 nM	> 500 nM	10 to 500 nM	> 500 nM	C[C@H](Nc1ncnc2[nH]ccc(=O)c12)c1nc2ccc(F)cc2c(=O)n1-c1cccnc1 [Example 28, (S)-4-((1-(6-fluoro-4-oxo-3-(pyridine-3-yl)-3,4-dihydroquinazoline-2-yl)ethyl)amino)pyrido[2,3-d]pyrimidine-5(8H)-one]
10 to 500 nM	> 500 nM	< 10 nM	> 500 nM	C[C@H](Nc1ncnc2[nH]ccc(=O)c12)c1nc2ccc(F)cc2c(=O)n1-c1ccccc1 [Example 29, (S)-4-((1-(6-fluoro-4-oxo-3-phenyl-3,4-dihydroquinazoline-2-yl)ethyl)amino)pyrido[2,3-d]pyrimidine-5(8H)-one]
10 to 500 nM	> 500 nM	< 10 nM	> 500 nM	C[C@H](Nc1ncnc2[nH]ccc(=O)c12)c1nc2ccc(F)cc2c(=O)n1-c1cccc(F)c1 [Example 30, (S)-4-((1-(6-fluoro-3-(3-fluorophenyl)-4-oxo-3,4-dihydroquinazoline-2-yl)ethyl)amino)pyrido[2,3-d]pyrimidine-5(8H)-one]
> 500 nM	> 500 nM	10 to 500 nM	> 500 nM	C[C@H](Nc1ncnc2[nH]ccc(=O)c12)c1nc2cccc(Cl)c2c(=O)n1Cc1ccccc1Cl [Example 31, (S)-4-((1-(5-chloro-3-(2-chlorobenzyl)-4-oxo-3,4-dihydroquinazoline-2-yl)ethyl)amino)pyrido[2,3-d]pyrimidine-5(8H)-one]
10 to 500 nM	> 500 nM	< 10 nM	> 500 nM	CC(Nc1ncnc2[nH]ccc(=O)c12)c1nc2cccc(Cl)c2cc1-c1ccccn1 (centres unmarked) [Example 33, 4-((1-(5-chloro-3-(pyridine-2-yl)quinoline-2-yl)ethyl)amino)pyrido[2,3-d]pyrimidine-5(8H)-one]
< 10 nM	> 500 nM	< 10 nM	10 to 500 nM	C[C@H](Nc1ncnc2c1C(=O)N(C)CN2)c1cc2cccc(Cl)c2c(=O)n1-c1ccccc1 [Example 38, (S)-5-((1-(8-chloro-1-oxo-2-phenyl-1,2-dihydroisoquinoline-3-yl)ethyl)amino)-3-methyl-2,3-dihydropyrimido[4,5-d]pyrimidine-4(1H)-one]

Source: patent publication US10526337B2, “Heteroaryl derivative or pharmaceutically acceptable salt thereof, preparation method therefor, and pharmaceutical composition for preventing or treating diseases associated with PI3 kinases, containing same as active ingredient” (KOREA RESEARCH INSTITUTE OF CHEMICAL TECHNOLOGY, priority 2015, dated 2020)
